Source: patent US10047091B2, “Ionic liquid, lubricating agent, and magnetic recording medium” (Dexerials Corporation, priority 2012, dated 2018)
Like-named read-outs stand apart in the source and are kept apart here.

Legend:
[1] = TG/DTA thermal analysis; type: physicochemical; conditions: for 10% weight loss temperature: TG; for 10% weight loss temperature / Exothermic peak temperature in DTA measurement: air, 30° C. to 600° C., heating rate 10° C./min; for nature of the weight loss in TG/DTA: exothermic suggests decomposition reaction
Procedure: The measurement is performed in a temperature range of 30° C. to 600° C. at a heating rate of 10° C./min while introducing air at a flow rate of 200 mL/min using EXSTAR 6000 (manufactured by Seiko Instruments Inc.). As a gas chromatography mass spectrometer, 6890/5975 MSD (manufactured by Agilent Technologies, Inc.) was used. The following measurement conditions are used: column: DB-1 (15 m, diameter: 0.25 mm, membrane thickness: 0.1 μm); injection temperature: 280° C.; column temperature: initial temperature of 40° C., hold for 5 min, heated to 340° C. at the heating rate of 20° C./min, and hold at the same temperature; mass spectrometric unit: 5975MSD; MS detection mode: EI^+; quadrupole temperature: 150° C.; ion source temperature: 300° C.; mass scanning range: m/z 33-700; and calibration: PFTBA.
Ionic liquids obtained from Examples 2, 28, and 29 and Comparative Examples 16 and 17 were subjected to a TG measurement using EXSTAR 6000 (Seiko Instruments Inc.) (Examples 30 and 31, and Comparative Examples 18 and 19). Z-DOL was also subjected to the TG measurement (Comparative Example 20). Weight loss was measured while purging air in a temperature range of 30° C. to 600° C. at a heating rate of 10° C./min.
The TG/DTA measurement was performed in a temperature range of 30° C. to 600° C. at a heating rate of 10° C./min while introducing air at a flow rate of 200 mL/min using EXSTAR 6000 (manufactured by Seiko Instruments Inc.). As a gas chromatography mass spectrometer, 6890/5975 MSD (manufactured by Agilent Technologies, Inc.) was used. The following measurement conditions were used: column: DB-1 (15 m, diameter: 0.25 mm, membrane thickness: 0.1 μm); injection temperature: 280° C.; column temperature: initial temperature of 40° C., hold for 5 min, heated to 340° C. at the heating rate of 20° C./min, and hold at the same temperature; mass spectrometric unit: 5975MSD; MS detection mode: EI^+; quadrupole temperature: 150° C.; ion source temperature: 300° C.; mass scanning range: m/z 33-700; and calibration: PFTBA.

[2] = acid dissociation constant (pKa) in water
Excerpt: As used herein, pKa refers to an acid dissociation constant, i.e., an acid dissociation constant in water or an acid dissociation constant in acetonitrile.
The acid dissociation constant in water can be measured, for example, with reference to the method described in J. Chem. Res., Synop. […] Specifically, it can be measured by a combination of a spectrometer with potentiometry.

[3] = acid dissociation constant (pKa) in acetonitrile; type: physicochemical
Excerpt: […]. Note that, the pKa values in acetonitrile is described in, for example, Blackwell Scientific Publications, Oxford, 1990, and J. Org. Chem. 2011, Vol. 76, pp. 391-395.
Although the acid dissociation constant in acetonitrile is not described herein because it is described in J. Org. Chem. 1998, 63, p. 7868 or J. Org. Chem. 1997, 62, p. 8479, it can be obtained by dissolving an acid in acetonitrile, titrating the resultant with a base, and measuring a spectrum by means of a UV-vis spectrometer.

[4] = cited from earlier work

SMILES | 10% weight loss temperature [1] | pKa of Bronsted acid ([2]; in water) | nature of the weight loss in TG/DTA [1] | ΔpKa [3] | other results
CCCCCCCCCCCCCCCC1CCCCN2CCCN=C12.O=S(=O)(O)C(F)(F)C(F)(F)C(F)(F)C(F)(F)C(F)(F)C(F)(F)C(F)(F)C(F)(F)F [Ionic liquid 11] | 372 °C | −3.3 | – | – | increase of 10% weight loss temperature ([1]; DBU derivative instead of stearylamine as Bronsted base): 45 °C; 10% weight loss temperature higher than that of Z-DOL ([1]; difference to Z-DOL): ≥ 200 °C; pKa of Bronsted base ([2]; in water): 12.5
O=C(O)C(F)(F)C(F)(F)C(F)(F)C(F)(F)C(F)(F)C(F)(F)C(F)(F)F [perfluorooctanoic acid] | – | – | – | – | pKa [2]: 2.5
CCCCCCCCCCCCCCCCCCN.O=S(=O)(O)C(F)(F)C(F)(F)C(F)(F)C(F)(F)C(F)(F)C(F)(F)C(F)(F)C(F)(F)F [Ionic liquid 10] | 327 °C | −3.3 | – | – | pKa of Bronsted base ([2]; in water): 10.7
CCCCCCCCCCCCCCCCCCN.O=S(=O)(NS(=O)(=O)C(F)(F)F)C(F)(F)F [Ionic liquid 1, n-octadecylamine-bistrifluoromethane sulfonylimide salt] | 329 °C | – | exothermic | 17.9 | –
CCCCCCCCCCCCCCCCCCN1CCCN2CCCN=C12.O=S1(=O)NS(=O)(=O)C(F)(F)C(F)(F)C1(F)F [Ionic liquid 18, C18-TBD cyclo-hexafluoropropane-1,3-bis(sulfonyl)imide salt] | 380 °C | – | exothermic | 26.4 | –
CCCCCCCCCCCCCCCCCCN.OCC(F)(F)C(F)(F)C(F)(F)C(F)(F)C(F)(F)C(F)(F)C(F)(F)F [Comparative ionic liquid 7, reference compound] | 62 °C | 7-9 | – | – | pKa of Bronsted base ([2]; in water): 10.7; ΔpKa (pKa value of Bronsted base minus pKa value of Bronsted acid) ([2]; in water): ≤ 4; ΔpKa (pKa value of Bronsted base minus pKa value of Bronsted acid) ([2]; in water, listed as Comparative Example 17): 1.7-3.7
CCCCCCCCCCCCCCCCCCN.O=C(O)C(F)(F)C(F)(F)C(F)(F)C(F)(F)C(F)(F)C(F)(F)C(F)(F)F [Comparative ionic liquid 2, reference compound] | – | – | – | – | pKa of Bronsted acid [2]: 2.5
CCCCCCCCCCCCCCCCCCC1CCCCN2CCCN=C12.O=S1(=O)NS(=O)(=O)C(F)(F)C(F)(F)C1(F)F (stereo not drawn) [Ionic liquid 16, C18-DBU cyclo-hexafluoropropane-1,3-bis(sulfonyl)imide salt] | 386 °C | – | exothermic | 25.2 | Exothermic peak temperature in DTA measurement [1]: 474 °C
C1CCC2=NCCCN2CC1.O=S(=O)(O)C(F)(F)C(F)(F)C(F)(F)C(F)(F)C(F)(F)C(F)(F)C(F)(F)C(F)(F)F [Comparative ionic liquid 8, DBU pentadecafluorooctane sulfonic acid salt, reference compound] | 393 °C | – | exothermic | 23.6 | Exothermic peak temperature in DTA measurement [1]: 432 °C
C1CN=C2NCCCN2C1.O=S(=O)(O)C(F)(F)C(F)(F)C(F)(F)C(F)(F)C(F)(F)C(F)(F)C(F)(F)F [Comparative ionic liquid 9, TBD pentadecafluoro sulfonic acid salt, reference compound] | 371 °C | – | exothermic | 24.8 | Exothermic peak temperature in DTA measurement [1]: 425 °C
CCCCCCCCCCCCCCCCCCN.O=S(=O)(NS(=O)(=O)C(F)(F)C(F)(F)C(F)(F)C(F)(F)F)C(F)(F)C(F)(F)C(F)(F)C(F)(F)F [Ionic liquid 13, n-octadecylamine-bisnonafluorobutane sulfonylimide salt] | 331 °C | – | exothermic | 18.3 | –
CCCCCCCCCCCCCCCCCC(=O)O.CCCCCCCCCCCCCCCCCCN [Comparative ionic liquid 3, reference compound] | – | 5.0 | – | – | –
CCCCCCCCCCCCCCCCCCN [octadecylamine] | – | – | – | – | pKa ([2]; water): 10.7
C1CCC2=NCCCN2CC1 [DBU, 1,8-diazabicyclo(5,4,0)-undecene-7] | – | – | – | – | pKa value ([4]; in water, cyclic amidine base): 12.5
CCCCCCCCCCCCCCCCCCN.O=S1(=O)NS(=O)(=O)C(F)(F)C(F)(F)C1(F)F [Ionic liquid 14, n-octadecylamine-cyclo-hexafluoropropane-1,3-bis(sulfonyl)imide salt] | 347 °C | – | exothermic | 19.2 | Exothermic peak temperature in DTA measurement [1]: 417 °C
CCCCCCCCCCCCCCCCCCN.CS(=O)(=O)O [Ionic liquid 4] | – | −2 | – | – | –
CCCCCCCCCCCCCCCCCCN.O=C(O)C(F)(F)F [Comparative ionic liquid 1, reference compound] | – | 0.5 | – | – | –
CCCCCCCCCCCCCCCCCCN.O=C(O)C(F)(F)C(F)(F)C(F)(F)C(F)(F)C(F)(F)C(F)(F)C(F)(F)F [Comparative ionic liquid 6, reference compound] | 205 °C | – | – | – | pKa of Bronsted base ([2]; in water): 10.7; pKa of Bronsted acid ([2]; in water, listed as Comparative Example 16): 3.8
c1c[nH]cn1 [imidazole] | – | – | – | – | pKa value ([4]; solvent not stated): 14
CCCCCCCCCCCCCCCCCC(=O)O [stearic acid] | – | – | – | – | pKa ([2]; water): 5
CCCCCCCCCCCCCCCCCCN.O=S(=O)(O)O [Ionic liquid 3] | – | −3 | – | – | –
CCCCCCCCCCCCCCCCCCN1CCCN2CCCN=C12.O=S(=O)(O)C(F)(F)C(F)(F)C(F)(F)C(F)(F)C(F)(F)C(F)(F)C(F)(F)C(F)(F)F [Ionic liquid 17, 7-n-octadecyl-1,5,7-triazabicyclo[4.4.0]-5-decene (C18-TBD) pentadecafluorooctane sulfonic acid salt] | 381 °C | – | exothermic | 24.8 | –
CCCCCCCCCCCCCCCCCCC1CCCCN2CCCN=C12.O=S(=O)(O)C(F)(F)C(F)(F)C(F)(F)C(F)(F)C(F)(F)C(F)(F)C(F)(F)C(F)(F)F (stereo not drawn) [Ionic liquid 15, 6-n-octadecyl-1,8-diazabicyclo[5.4.0]-7-undecene (C18-DBU) pentadecafluorooctane sulfonic acid salt] | 384 °C | – | exothermic | 23.6 | –
